Values quoted from earlier work as cited in US8513407B2, “Process for the preparation of N-acyl-(epi)K5-amine-O-sulfate-derivatives and products thus obtained” (GLYCORES 2000 S.r.l., priority 2002, dated 2013).

Test system: HIV
Conditions: compared with K5-O-oversulfate and heparin

Substance: K5-N,O-oversulfate
- anti-HIV activity: more active than K5-O-oversulfate and much more active than heparin
